Results taken from patent US20240239781A1, “1H-PYRAZOLE DERIVATIVES AS SIGMA LIGANDS” (ACONDICIONAMIENTO TARRASENSE, priority 2021, published 2024).

Tests used:
human σ2/TMEM97 receptor = biological target: T1, human σ2/TMEM97 receptor (Homo sapiens, UniProt Q5BJF2); experiment: Binding assay to human σ2/TMEM97 receptor ([3H]-DTG, transfected HEK-293 membranes); conditions: class scale, read-out: Binding σ-2 Ki
T1 construct: expressed in transfected cells; host or cells: HEK-293
Method: Transfected HEK-293 membranes (15 μg) were incubated with 10 nM [^3H]-1,3-Di-o-tolylguanidine (DTG) in assay buffer containing Tris-HCl 50 mM at pH 8.0. NSB (non-specific binding) was measured by adding 10 μM haloperidol. The binding of the test compound was measured at either one concentration (% inhibition at 1 or 10 μM) or five different concentrations to determine affinity values (Ki). Plates were incubated at 25° C. for 120 minutes. After the incubation period, the reaction mix was transferred to MultiScreen HTS, FC plates (Millipore), filtered and washed 3 times with ice-cold 10 mM Tris-HCL (pH 8.0). Filters were dried and counted at approximately 40% efficiency in a MicroBeta scintillation counter (Perkin-Elmer) using EcoScint liquid scintillation cocktail.

human σ1 receptor = biological target: T2, human σ1 receptor (Homo sapiens, UniProt Q99720); experiment: Human σ1 receptor radioligand assay ([3H](+)-pentazocine, transfected HEK-293 membranes); conditions: class scale, read-out: Binding σ-1 Ki
T2 construct: expressed in transfected cells; host or cells: HEK-293
Method: Transfected HEK-293 membranes (7 μg) were incubated with 5 nM of [^3H](+)-pentazocine in assay buffer containing Tris-HCl 50 mM at pH 8. NBS (non-specific binding) was measured by adding 10 μM haloperidol. The binding of the test compound was measured at either one concentration (% inhibition at 1 or 10 μM) or five different concentrations to determine affinity values (Ki). Plates were incubated at 37° C. for 120 minutes. After the incubation period, the reaction mix was then transferred to MultiScreen HTS, FC plates (Millipore), filtered and plates were washed 3 times with ice-cold 10 mM Tris-HCL (pH7.4). Filters were dried and counted at approximately 40% efficiency in a MicroBeta scintillation counter (Perkin-Elmer) using EcoScint liquid scintillation cocktail.

T1 sequence (Q5BJF2 whole entry): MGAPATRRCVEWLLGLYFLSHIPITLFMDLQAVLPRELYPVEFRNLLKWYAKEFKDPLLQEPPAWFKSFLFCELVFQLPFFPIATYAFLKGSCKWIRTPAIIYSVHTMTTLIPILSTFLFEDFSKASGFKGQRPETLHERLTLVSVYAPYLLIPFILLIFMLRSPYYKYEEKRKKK
T2 sequence (Q99720 whole entry): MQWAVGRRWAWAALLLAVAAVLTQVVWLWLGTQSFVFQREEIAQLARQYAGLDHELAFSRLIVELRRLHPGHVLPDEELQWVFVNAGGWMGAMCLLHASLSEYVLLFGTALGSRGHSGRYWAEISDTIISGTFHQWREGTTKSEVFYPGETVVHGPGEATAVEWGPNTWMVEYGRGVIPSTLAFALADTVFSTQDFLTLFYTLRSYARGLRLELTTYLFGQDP

SMILES	Ki (human σ2/TMEM97 receptor)	Ki (human σ1 receptor)
CC(C)c1cc(-c2nn(C)c(Cl)c2C(=O)N2CCC3(CCN(CCC(C)(C)C)CC3)CC2)no1 [Example 177, (5-Chloro-3-(5-isopropylisoxazol-3-yl)-1-methyl-1H-pyrazol-4-yl)(9-(3,3-dimethylbutyl)-3,9-diazaspiro[5.5]undecan-3-yl)methanone]	< 100 nM	100 to 500 nM
Cc1cc(-c2nn(C(C)C)c(Cl)c2C(=O)N2CC3(CCN(CCC(C)(C)C)CC3)C2)no1 [Example 188, (5-Chloro-1-isopropyl-3-(5-methylisoxazol-3-yl)-1H-pyrazol-4-yl)(7-(3,3-dimethylbutyl)-2,7-diazaspiro[3.5]nonan-2-yl)methanone]	< 100 nM	500 to 1000 nM
Cn1nc(-c2ccccn2)c(C(=O)N2CCC3(CCN(CCC(C)(C)C)CC3)CC2)c1Cl [Example 173, (5-Chloro-1-methyl-3-(pyridin-2-yl)-1H-pyrazol-4-yl)(9-(3,3-dimethylbutyl)-3,9-diazaspiro[5.5]undecan-3-yl)methanone]	< 100 nM	500 to 1000 nM
CCn1nc(-c2ccon2)c(C(=O)N2CCCC3(CN(CCC(C)(C)C)C3)C2)c1Cl [Example 195, (5-Chloro-1-ethyl-3-(isoxazol-3-yl)-1H-pyrazol-4-yl)(2-(3,3-dimethylbutyl)-2,6-diazaspiro[3.5]nonan-6-yl)methanone]	< 100 nM	500 to 1000 nM
Cn1nc(-c2cccc(C(F)(F)F)n2)c(C(=O)N2CCCC3(CCN(CCC(C)(C)C)CC3)C2)c1Cl [Example 155, (5-Chloro-1-methyl-3-(6-(trifluoromethyl)pyridin-2-yl)-1H-pyrazol-4-yl)(9-(3,3-dimethylbutyl)-2,9-diazaspiro[5.5]undecan-2-yl)methanone]	< 100 nM	100 to 500 nM
CCn1nc(-c2ccon2)c(C(=O)NC2CCN(CCC(C)(C)C)CC2)c1Cl [Example 163, 5-Chloro-N-(1-(3,3-dimethylbutyl)piperidin-4-yl)-1-ethyl-3-(isoxazol-3-yl)-1H-pyrazole-4-carboxamide]	< 100 nM	100 to 500 nM
Cn1cc(-c2nn(C)c(Cl)c2C(=O)N2CCCC3(CCN(CCC(C)(C)C)CC3)C2)cn1 [Example 135, (5-Chloro-1,1′-dimethyl-1H,1′H-[3,4′-bipyrazol]-4-yl)(9-(3,3-dimethylbutyl)-2,9-diazaspiro[5.5]undecan-2-yl)methanone]	< 100 nM	> 1000 nM
CCn1nc(-c2ccon2)c(CC(=O)NC2CC3(CCN(CCC(C)(C)C)CC3)C2)c1Cl [Example 224, 2-(5-chloro-1-ethyl-3-(isoxazol-3-yl)-1H-pyrazol-4-yl)-N-(7-(3,3-dimethylbutyl)-7-azaspiro[3.5]nonan-2-yl)acetamide]	< 100 nM	100 to 500 nM
CCn1nc(-c2ccon2)c(CC(=O)NC2CCC3(CC2)CCN(CCC(C)(C)C)CC3)c1Cl [Example 219, 2-(5-Chloro-1-ethyl-3-(isoxazol-3-yl)-1H-pyrazol-4-yl)-N-(3-(3,3-dimethylbutyl)-3-azaspiro[5.5]undecan-9-yl)acetamide]	< 100 nM	100 to 500 nM
CCn1nc(-c2cc(C(C)C)on2)c(C(=O)NC2CCN(CCC(C)(C)C)CC2)c1Cl [Example 162, 5-Chloro-N-(1-(3,3-dimethylbutyl)piperidin-4-yl)-1-ethyl-3-(5-isopropylisoxazol-3-yl)-1H-pyrazole-4-carboxamide]	< 100 nM	< 100 nM
CC(C)c1cc(-c2nn(C)c(Cl)c2C(=O)N2CCCC3(CCN(CCC(C)(C)C)CC3)C2)no1 [Example 132, (5-Chloro-3-(5-isopropylisoxazol-3-yl)-1-methyl-1H-pyrazol-4-yl)(9-(3,3-dimethylbutyl)-2,9-diazaspiro[5.5]undecan-2-yl)methanone]	< 100 nM	100 to 500 nM
Cn1nc(-c2cccc(C(F)(F)F)n2)c(C(=O)N2CCC3(CCN(CCC(C)(C)C)CC3)CC2)c1Cl [Example 180, (5-Chloro-1-methyl-3-(6-(trifluoromethyl)111ndecane-2-yl)-1H-pyrazol-4-yl)(9-(3,3-dimethylbutyl)-3,9-diazaspiro[5.5]111ndecane-3-yl)methanone]	< 100 nM	100 to 500 nM

Results, then the molecule that gave them:

Ki (human σ2/TMEM97 receptor)	Ki (human σ1 receptor)	SMILES
> 1000 nM	100 to 500 nM	Cc1cc(-c2nn(C)c(Cl)c2CN2CCC[C@H](NCCC(C)C)C2)no1 [Example 6, (S)-1-((5-Chloro-1-methyl-3-(5-methylisoxazol-3-yl)-1H-pyrazol-4-yl)methyl)-N-isopentylpiperidin-3-amine]
100 to 500 nM	500 to 1000 nM	Cc1cc(-c2nn(C)c(Cl)c2C(=O)N2CC3(CCCN(CCC(C)(C)C)C3)C2)no1 [Example 144, (5-Chloro-1-methyl-3-(5-methylisoxazol-3-yl)-1H-pyrazol-4-yl)(6-(3,3-dimethylbutyl)-2,6-diazaspiro[3.5]nonan-2-yl)methanone]
100 to 500 nM	> 1000 nM	Cc1cc(-c2nn(C)c(Cl)c2CN2CCC(CN(CC(C)C)CC(C)C)C2)no1 (stereo not drawn) [Example 42, N-((1-((5-Chloro-1-methyl-3-(5-methylisoxazol-3-yl)-1H-pyrazol-4-yl)methyl)pyrrolidin-3-yl)methyl)-/-isobutyl-2-methylpropan-1-amine]
100 to 500 nM	> 1000 nM	Cc1cc(-c2nn(C)c(Cl)c2CN2CC[C@H](CNCCc3ccccc3)C2)no1 [Example 71, (R)-N-((1-((5-Chloro-1-methyl-3-(5-methylisoxazol-3-yl)-1H-pyrazol-4-yl)methyl)pyrrolidin-3-yl)methyl)-2-phenylethanamine]
< 100 nM	100 to 500 nM	Cc1cc(-c2nn(C)c(Cl)c2CC(=O)N2CCCC3(CCN(CCC(C)(C)C)CC3)C2)no1 [Example 214, 2-(5-Chloro-1-methyl-3-(5-methylisoxazol-3-yl)-1H-pyrazol-4-yl)-1-(9-(3,3-dimethylbutyl)-2,9-diazaspiro[5.5]undecan-2-yl)ethan-1-one]
< 100 nM	100 to 500 nM	Cc1conc1-c1nn(C)c(Cl)c1CN1CCCCC(NCCC(C)(C)C)C1 (stereo not drawn) [Example 27, 1-((5-Chloro-1-methyl-3-(4-methylisoxazol-3-yl)-1H-pyrazol-4-yl)methyl)-N-(3,3-dimethylbutyl)azepan-3-amine]
< 100 nM	100 to 500 nM	CCn1nc(-c2cc(C)on2)c(C(=O)NCC2CCN(CCC(C)(C)C)CC2)c1Cl [Example 203, 5-Chloro-N-((1-(3,3-dimethylbutyl)piperidin-4-yl)methyl)-1-ethyl-3-(5-methylisoxazol-3-yl)-1H-pyrazole-4-carboxamide]
100 to 500 nM	< 100 nM	Cc1cc(-c2nn(C)c(Cl)c2CN2CCCC(C3(NCCC(C)C)CC3)C2)no1 (stereo not drawn) [Example 63, 1-(1-((5-Chloro-1-methyl-3-(5-methylisoxazol-3-yl)-1H-pyrazol-4-yl)methyl)piperidin-3-yl)-N-isopentylcyclopropanamine]
> 1000 nM	> 1000 nM	Cc1cc(-c2nn(C)c(Cl)c2C(=O)N2CCC[C@@H](CNCCC(C)C)C2)no1 [Example 126, (S)-(5-Chloro-1-methyl-3-(5-methylisoxazol-3-yl)-1H-pyrazol-4-yl)(3-((isopentylamino)methyl)piperidin-1-yl)methanone]
100 to 500 nM	> 1000 nM	Cc1cc(-c2nn(C)c(Cl)c2CN2CCCC(CNCc3ccccc3)C2)no1 (stereo not drawn) [Example 55, N-Benzyl-1-(1-((5-chloro-1-methyl-3-(5-methylisoxazol-3-yl)-1H-pyrazol-4-yl)methyl)piperidin-3-yl)methanamine]
< 100 nM	< 100 nM	CCn1nc(-c2cc(C)on2)c(C(=O)NCC2CCCN(CCC(C)(C)C)C2)c1Cl (stereo not drawn) [Example 205, 5-Chloro-N-((1-(3,3-dimethylbutyl)piperidin-3-yl)methyl)-1-ethyl-3-(5-methylisoxazol-3-yl)-1H-pyrazole-4-carboxamide]
100 to 500 nM	100 to 500 nM	Cc1cc(-c2nn(C)c(Cl)c2CN2CCC3(CC2)CCN(C(C)c2ccccc2)CC3)no1 (stereo not drawn) [Example 65, 3-(5-Chloro-1-methyl-4-((9-(1-phenylethyl)-3,9-diazaspiro[5.5]undecan-3-yl)methyl)-1H-pyrazol-3-yl)-5-methylisoxazole]
100 to 500 nM	100 to 500 nM	Cc1cc(-c2nn(C)c(Cl)c2CN2CCC(CNCCC(C)C)CC2)no1 [Example 41, N-((1-((5-Chloro-1-methyl-3-(5-methylisoxazol-3-yl)-1H-pyrazol-4-yl)methyl)piperidin-4-yl)methyl)-3-methylbutan-1-amine]
< 100 nM	100 to 500 nM	Cc1cc(-c2nn(C)c(Cl)c2CN2CC[C@@H](CNCCC(C)(C)C)C2)no1 [Example 73, (S)-N-((1-((5-Chloro-1-methyl-3-(5-methylisoxazol-3-yl)-1H-pyrazol-4-yl)methyl)pyrrolidin-3-yl)methyl)-3,3-dimethylbutan-1-amine]
100 to 500 nM	> 1000 nM	Cc1cc(-c2nn(C)c(Cl)c2CN2CCCC(CNCC(C)C)C2)no1 (stereo not drawn) [Example 48, N-((1-((5-Chloro-1-methyl-3-(5-methylisoxazol-3-yl)-1H-pyrazol-4-yl)methyl)piperidin-3-yl)methyl)-2-methylpropan-1-amine]
